We go through 13 compounds from BindingDB's records for doi:10.1021/acs.jmedchem.5b01840 (Norgine, 2016).

The nature of this assay: Antagonist activity at CCR9 receptor in human MOLT4 cells assessed as inhibition of CCl25-mediated cell migration preincubated for 30 mins followed CCL25 addition incubated for 2 hrs by ChemoTx plate system.

`CC(C)(C)c1ccc(S(=O)(=O)Nc2ccc(Cl)c3c2C(=O)N(Cc2cccnc2)C3=O)cc1` [US9969687, Compound 64]: the Ki (in general, a measure of affinity in units of concentration, obtained from inhibition or displacement) was determined as 357 nM.

As for `CC(C)(C)c1ccc(S(=O)(=O)Nc2ccc(Cl)c3c2C(=O)N(Cc2ccc[n+]([O-])c2)C3=O)cc1` [US9969687, Compound 65], the inhibition constant Ki was found to be 38 nM.

Regarding `COc1ccncc1N1C(=O)c2c(Cl)ccc(NS(=O)(=O)c3ccc(C(C)(C)C)cc3)c2C1=O` [US9969687, Compound 119], the inhibition constant Ki amounted to 3 nM.

Take `Cc1ncccc1N1C(=O)c2c(Cl)ccc(NS(=O)(=O)c3ccc(C(C)(C)C)cc3)c2C1=O` [US9969687, Compound 175]: the Ki is 14 nM.

As for `Cc1c(N2C(=O)c3c(Cl)ccc(NS(=O)(=O)c4ccc(C(C)(C)C)cc4)c3C2=O)ccc[n+]1[O-]` [US9969687, Compound 176], the Ki is 24 nM.

With `COc1ncccc1N1C(=O)c2c(Cl)ccc(NS(=O)(=O)c3ccc(C(C)(C)C)cc3)c2C1=O` [US9969687, Compound 183], the Ki turned out to be 32 nM.

Consider `COc1c(N2C(=O)c3c(Cl)ccc(NS(=O)(=O)c4ccc(C(C)(C)C)cc4)c3C2=O)ccc[n+]1[O-]` [US9969687, Compound 194], for which the Ki amounted to 113 nM.

For the compound `CC(C)(C)c1ccc(S(=O)(=O)Nc2ccc(Cl)c3c2C(=O)N(Cc2cccc[n+]2[O-])C3=O)cc1` [US9969687, Compound 199], the Ki was 40 nM.

`CC(C)(C)c1ccc(S(=O)(=O)Nc2ccc(Cl)c3c2C(=O)N(Cc2ccncc2)C3=O)cc1` [US9969687, Compound 201]: the Ki is greater than 100 nM.

Take `CC(C)(C)c1ccc(S(=O)(=O)Nc2ccc(Cl)c3c2C(=O)N(c2cccnc2F)C3=O)cc1` [US9969687, Compound 218]: the inhibitory constant (Ki) came out at 91 nM.

With `CC(C)(C)c1ccc(S(=O)(=O)Nc2ccc(Cl)c3c2C(=O)N(c2ccccn2)C3=O)cc1` [US9969687, Compound 222], the Ki worked out at 9 nM.

Regarding `Cc1ccc(N2C(=O)c3c(Cl)ccc(NS(=O)(=O)c4ccc(C(C)(C)C)cc4)c3C2=O)c(C)n1` [US9969687, Compound 224], the Ki was greater than 300 nM.

Regarding `Cc1cccc(N2C(=O)c3c(Cl)ccc(NS(=O)(=O)c4ccc(C(C)(C)C)cc4)c3C2=O)n1` [US9969687, Compound 228], the Ki was found to be 19 nM.
